Assay results reported in ChEMBL document CHEMBL5058643, “Data for DCP probe BI-2081” (2022).
One block for each compound: values may come before it.

Assays:
[1] = molecular target: Muscarinic acetylcholine receptor M4 (Homo sapiens) (UniProt P08173); details: Compound concentration 10.0 uM
[2] = molecular target: T1, Muscarinic acetylcholine receptor M1 (Homo sapiens) (UniProt P11229); assay: M1/H Eurofins SafetyScreen44 (BI); details: Compound concentration 10.0 uM
T1 sequence (whole entry): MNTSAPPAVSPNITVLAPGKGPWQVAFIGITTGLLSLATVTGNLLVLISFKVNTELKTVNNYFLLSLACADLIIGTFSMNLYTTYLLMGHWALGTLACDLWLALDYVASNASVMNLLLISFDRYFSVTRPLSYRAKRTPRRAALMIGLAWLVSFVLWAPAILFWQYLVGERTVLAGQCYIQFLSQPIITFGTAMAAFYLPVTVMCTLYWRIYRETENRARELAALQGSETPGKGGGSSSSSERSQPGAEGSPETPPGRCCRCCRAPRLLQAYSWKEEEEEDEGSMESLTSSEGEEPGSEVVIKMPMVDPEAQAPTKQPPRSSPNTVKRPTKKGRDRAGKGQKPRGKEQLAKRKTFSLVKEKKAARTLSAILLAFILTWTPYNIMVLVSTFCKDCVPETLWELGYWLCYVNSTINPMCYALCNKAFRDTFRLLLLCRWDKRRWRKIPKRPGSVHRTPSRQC

[3] = molecular target: 5-hydroxytryptamine receptor 1B (Homo sapiens) (UniProt P28222); assay: 5HT1B(H) Eurofins SafetyScreen44 (BI); details: filed as antagonist, Compound concentration 10.0 uM
[4] = molecular target: D(1A) dopamine receptor (Homo sapiens) (UniProt P21728); assay: D1/H Eurofins SafetyScreen44 (BI); details: filed as antagonist, Compound concentration 10.0 uM
[5] = molecular target: Potassium voltage-gated channel subfamily V member 1 (Rattus norvegicus) (UniProt P97557); assay: K+/VOLT/RA Eurofins SafetyScreen44 (BI); details: Compound concentration 10.0 uM
[6] = molecular target: T2, Alpha-1A adrenergic receptor (Homo sapiens) (UniProt P35348); assay: ALPHA1AH_ANTAG Eurofins SafetyScreen44 (BI); details: filed as antagonist, Compound concentration 10.0 uM
T2 sequence (whole entry): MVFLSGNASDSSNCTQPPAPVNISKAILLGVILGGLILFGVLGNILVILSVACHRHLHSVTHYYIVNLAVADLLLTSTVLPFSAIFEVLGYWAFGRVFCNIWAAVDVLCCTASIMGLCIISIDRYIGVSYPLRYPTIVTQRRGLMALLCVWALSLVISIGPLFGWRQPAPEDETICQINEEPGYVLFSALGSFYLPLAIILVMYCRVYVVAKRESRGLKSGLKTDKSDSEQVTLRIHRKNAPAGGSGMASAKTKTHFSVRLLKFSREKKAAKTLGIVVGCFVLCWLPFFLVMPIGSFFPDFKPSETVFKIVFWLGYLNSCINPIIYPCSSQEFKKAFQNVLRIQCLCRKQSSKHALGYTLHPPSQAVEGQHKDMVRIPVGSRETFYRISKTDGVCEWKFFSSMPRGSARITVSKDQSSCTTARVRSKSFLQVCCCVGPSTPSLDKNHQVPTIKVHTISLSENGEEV

[7] = molecular target: Prostaglandin G/H synthase 1 (Homo sapiens) (UniProt P23219); assay: COX-1 Eurofins SafetyScreen44 (BI); details: Compound concentration 10.0 uM
[8] = molecular target: Glucocorticoid receptor (Homo sapiens) (UniProt P04150); assay: GCORTICOID/H Eurofins SafetyScreen44 (BI); details: Compound concentration 10.0 uM
hERG (KCNH2) [9] = molecular target: T3, hERG (KCNH2) (Homo sapiens, UniProt Q12809); assay: HERG_DOFETILIDE Eurofins SafetyScreen44 (BI); parameters: mode of action inhibitor; details: probe [3H] Dofetilide, compound concentration 10 uM, read-out: % Ctrl
[10] = molecular target: 3',5'-cyclic-AMP phosphodiesterase 4D (Homo sapiens) (UniProt Q08499); assay: PDE4D2 Eurofins SafetyScreen44 (BI); details: Compound concentration 10.0 uM
[11] = molecular target: Muscarinic acetylcholine receptor M3 (Homo sapiens, UniProt P20309); assay: M3/HU Eurofins SafetyScreen44 (BI)
hERG (KCNH2) [12] = molecular target: T3, hERG (KCNH2); assay: K+/HERG Eurofins SafetyScreen44 (BI); details: compound concentration 10 uM, read-out: % Ctrl
[13] = molecular target: Endothelin-1 receptor (Homo sapiens) (UniProt P25101); assay: ETA/HU Eurofins SafetyScreen44 (BI); details: Compound concentration 10.0 uM
[14] = molecular target: Cannabinoid receptor 1 (Homo sapiens) (UniProt P21554); assay: CB1 Eurofins SafetyScreen44 (BI); details: Compound concentration 10.0 uM
[15] = molecular target: T4, Alpha-2B adrenergic receptor (Homo sapiens) (UniProt P18089); assay: ALPHA2B/H Eurofins SafetyScreen44 (BI)
T4 sequence (whole entry): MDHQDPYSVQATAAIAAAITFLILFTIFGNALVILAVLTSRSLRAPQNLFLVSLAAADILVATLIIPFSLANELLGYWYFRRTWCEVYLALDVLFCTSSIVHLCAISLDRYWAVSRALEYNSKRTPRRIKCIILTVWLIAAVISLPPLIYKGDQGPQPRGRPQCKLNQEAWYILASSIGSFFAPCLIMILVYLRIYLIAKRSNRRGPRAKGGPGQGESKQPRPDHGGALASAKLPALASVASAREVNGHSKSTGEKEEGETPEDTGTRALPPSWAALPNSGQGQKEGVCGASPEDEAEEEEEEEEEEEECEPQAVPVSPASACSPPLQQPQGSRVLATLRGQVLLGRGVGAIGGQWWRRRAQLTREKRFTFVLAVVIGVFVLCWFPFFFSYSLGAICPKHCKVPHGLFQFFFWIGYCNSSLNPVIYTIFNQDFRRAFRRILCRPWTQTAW

[16] = molecular target: Adenosine receptor A3 (Homo sapiens) (UniProt P0DMS8); assay: A3/H Eurofins SafetyScreen44 (BI); details: Compound concentration 10.0 uM
[17] = molecular target: GABA-A receptor; anion channel; assay: GPCRScan assay: inhibition of GABAA/BZP; format: protein-complex assay, Rattus norvegicus; parameters: radioligand conc. used [nm] 0.6 – 4.0, parental cells brain tissue
[18] = molecular target: Melatonin receptor type 1A (Homo sapiens) (UniProt P48039); assay: MT1/H Eurofins SafetyScreen44 (BI); details: Compound concentration 10.0 uM
[19] = molecular target: D(4) dopamine receptor (Homo sapiens) (UniProt P21917); assay: D4.2/H Eurofins SafetyScreen44 (BI); details: Compound concentration 10.0 uM
[20] = test system: imidazoline I2 receptor (Rattus norvegicus); assay: I2/CENTR/R Eurofins SafetyScreen44 (BI); details: Compound concentration 10.0 uM
[21] = molecular target: Sodium-dependent noradrenaline transporter (Homo sapiens) (UniProt P23975); assay: NETRANS/H Eurofins SafetyScreen44 (BI); details: Compound concentration 10.0 uM
[22] = molecular target: B2 bradykinin receptor (Homo sapiens) (UniProt P30411); assay: B2/H Eurofins SafetyScreen44 (BI); details: filed as antagonist, Compound concentration 10.0 uM
[23] = molecular target: Interleukin-1 beta (Mus musculus) (UniProt P10749); assay: IL-1 Eurofins SafetyScreen44 (BI); details: Compound concentration 10.0 uM
[24] = molecular target: Gamma-aminobutyric acid receptor subunit alpha-1 (Rattus norvegicus) (UniProt P62813); assay: GABAACENTR Eurofins SafetyScreen44 (BI); details: Compound concentration 10.0 uM
[25] = molecular target: Adenosine receptor A2a (Homo sapiens) (UniProt P29274); assay: A2A/HU Eurofins SafetyScreen44 (BI); details: Compound concentration 10.0 uM
Chain of Adenosine receptor A2a (Homo sapiens) (P29274 whole entry): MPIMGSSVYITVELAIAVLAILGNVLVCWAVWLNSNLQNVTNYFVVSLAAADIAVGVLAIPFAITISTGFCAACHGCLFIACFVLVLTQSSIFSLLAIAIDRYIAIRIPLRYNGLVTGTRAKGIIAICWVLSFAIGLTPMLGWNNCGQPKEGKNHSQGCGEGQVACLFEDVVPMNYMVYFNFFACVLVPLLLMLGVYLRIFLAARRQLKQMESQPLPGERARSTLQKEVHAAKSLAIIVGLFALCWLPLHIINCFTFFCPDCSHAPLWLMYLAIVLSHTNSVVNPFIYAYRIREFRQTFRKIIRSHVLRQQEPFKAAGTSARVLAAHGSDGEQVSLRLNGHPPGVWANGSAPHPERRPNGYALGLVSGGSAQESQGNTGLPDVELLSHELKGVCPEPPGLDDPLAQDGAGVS

Chain of Muscarinic acetylcholine receptor M3 (P20309 whole entry, looked up): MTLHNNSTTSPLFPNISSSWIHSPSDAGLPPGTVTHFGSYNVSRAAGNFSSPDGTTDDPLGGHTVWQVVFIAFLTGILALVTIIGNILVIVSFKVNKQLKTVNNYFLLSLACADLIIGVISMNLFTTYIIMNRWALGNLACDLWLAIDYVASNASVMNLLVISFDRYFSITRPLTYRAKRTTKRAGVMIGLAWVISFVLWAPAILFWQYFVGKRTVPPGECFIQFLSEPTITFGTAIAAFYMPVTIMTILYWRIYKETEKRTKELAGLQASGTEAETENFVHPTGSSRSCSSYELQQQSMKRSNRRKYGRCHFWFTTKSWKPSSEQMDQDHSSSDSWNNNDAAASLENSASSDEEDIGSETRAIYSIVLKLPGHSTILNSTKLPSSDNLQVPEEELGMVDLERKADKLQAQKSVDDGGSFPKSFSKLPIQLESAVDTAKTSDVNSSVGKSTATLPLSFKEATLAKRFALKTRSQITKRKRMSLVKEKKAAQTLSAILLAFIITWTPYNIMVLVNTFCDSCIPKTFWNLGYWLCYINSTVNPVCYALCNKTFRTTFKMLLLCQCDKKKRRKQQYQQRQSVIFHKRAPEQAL
T3 sequence (Q12809 whole entry): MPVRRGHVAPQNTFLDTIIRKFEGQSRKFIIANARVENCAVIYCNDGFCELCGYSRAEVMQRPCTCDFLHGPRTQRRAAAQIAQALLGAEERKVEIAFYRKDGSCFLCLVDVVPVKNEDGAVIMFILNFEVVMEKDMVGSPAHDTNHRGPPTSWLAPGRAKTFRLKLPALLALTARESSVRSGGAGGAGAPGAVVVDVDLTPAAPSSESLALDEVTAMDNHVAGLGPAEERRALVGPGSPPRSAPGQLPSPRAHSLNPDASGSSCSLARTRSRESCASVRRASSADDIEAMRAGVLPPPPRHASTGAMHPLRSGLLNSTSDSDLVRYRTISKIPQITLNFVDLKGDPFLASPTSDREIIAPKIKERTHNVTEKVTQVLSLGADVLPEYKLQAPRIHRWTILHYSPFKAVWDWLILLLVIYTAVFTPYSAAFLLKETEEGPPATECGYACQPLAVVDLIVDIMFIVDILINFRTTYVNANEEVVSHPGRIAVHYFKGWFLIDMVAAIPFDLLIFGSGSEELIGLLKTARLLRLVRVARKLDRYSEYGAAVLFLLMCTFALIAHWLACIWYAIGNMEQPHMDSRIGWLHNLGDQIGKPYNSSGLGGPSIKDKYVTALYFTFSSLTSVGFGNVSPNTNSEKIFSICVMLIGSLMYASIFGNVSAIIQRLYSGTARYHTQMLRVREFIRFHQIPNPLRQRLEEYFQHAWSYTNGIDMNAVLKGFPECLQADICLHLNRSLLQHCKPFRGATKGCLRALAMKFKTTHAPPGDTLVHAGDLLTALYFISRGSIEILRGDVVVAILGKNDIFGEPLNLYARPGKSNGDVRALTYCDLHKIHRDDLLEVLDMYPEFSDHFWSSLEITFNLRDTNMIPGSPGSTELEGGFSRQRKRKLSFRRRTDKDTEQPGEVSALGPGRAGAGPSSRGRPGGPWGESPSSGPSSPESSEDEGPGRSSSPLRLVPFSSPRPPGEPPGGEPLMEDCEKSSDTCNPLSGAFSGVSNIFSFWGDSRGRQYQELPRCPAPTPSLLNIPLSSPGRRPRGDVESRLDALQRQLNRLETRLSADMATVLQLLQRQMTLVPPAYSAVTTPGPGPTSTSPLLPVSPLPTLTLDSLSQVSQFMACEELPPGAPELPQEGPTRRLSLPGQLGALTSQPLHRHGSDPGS
Chain of Muscarinic acetylcholine receptor M4 (Homo sapiens) (P08173 whole entry): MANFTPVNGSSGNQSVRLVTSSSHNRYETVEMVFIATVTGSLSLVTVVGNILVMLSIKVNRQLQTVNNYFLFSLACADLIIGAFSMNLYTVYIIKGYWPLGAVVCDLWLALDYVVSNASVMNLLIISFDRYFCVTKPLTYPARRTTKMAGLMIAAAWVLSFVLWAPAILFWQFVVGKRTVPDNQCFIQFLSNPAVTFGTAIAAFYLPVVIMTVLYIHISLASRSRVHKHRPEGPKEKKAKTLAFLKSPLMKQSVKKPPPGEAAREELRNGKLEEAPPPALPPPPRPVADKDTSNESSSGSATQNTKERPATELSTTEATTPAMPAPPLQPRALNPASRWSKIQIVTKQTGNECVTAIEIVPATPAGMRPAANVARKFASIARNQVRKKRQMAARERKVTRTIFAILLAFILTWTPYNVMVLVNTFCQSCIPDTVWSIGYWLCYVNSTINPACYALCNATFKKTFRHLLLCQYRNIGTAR
Chain of Gamma-aminobutyric acid receptor subunit alpha-1 (Rattus norvegicus) (P62813 whole entry): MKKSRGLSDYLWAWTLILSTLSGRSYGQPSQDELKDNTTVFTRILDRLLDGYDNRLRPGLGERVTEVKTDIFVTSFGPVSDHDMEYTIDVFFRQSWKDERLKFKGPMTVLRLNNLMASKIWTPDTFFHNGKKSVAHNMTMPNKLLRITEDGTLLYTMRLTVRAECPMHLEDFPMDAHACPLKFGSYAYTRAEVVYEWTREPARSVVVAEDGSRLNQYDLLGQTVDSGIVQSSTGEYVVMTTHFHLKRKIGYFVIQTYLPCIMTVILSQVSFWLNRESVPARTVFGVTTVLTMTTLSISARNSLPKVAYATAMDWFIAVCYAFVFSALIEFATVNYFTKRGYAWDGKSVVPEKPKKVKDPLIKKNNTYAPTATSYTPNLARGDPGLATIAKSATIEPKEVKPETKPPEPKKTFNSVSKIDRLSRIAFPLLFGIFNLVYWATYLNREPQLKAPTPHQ
Chain of Sodium-dependent noradrenaline transporter (Homo sapiens) (P23975 whole entry): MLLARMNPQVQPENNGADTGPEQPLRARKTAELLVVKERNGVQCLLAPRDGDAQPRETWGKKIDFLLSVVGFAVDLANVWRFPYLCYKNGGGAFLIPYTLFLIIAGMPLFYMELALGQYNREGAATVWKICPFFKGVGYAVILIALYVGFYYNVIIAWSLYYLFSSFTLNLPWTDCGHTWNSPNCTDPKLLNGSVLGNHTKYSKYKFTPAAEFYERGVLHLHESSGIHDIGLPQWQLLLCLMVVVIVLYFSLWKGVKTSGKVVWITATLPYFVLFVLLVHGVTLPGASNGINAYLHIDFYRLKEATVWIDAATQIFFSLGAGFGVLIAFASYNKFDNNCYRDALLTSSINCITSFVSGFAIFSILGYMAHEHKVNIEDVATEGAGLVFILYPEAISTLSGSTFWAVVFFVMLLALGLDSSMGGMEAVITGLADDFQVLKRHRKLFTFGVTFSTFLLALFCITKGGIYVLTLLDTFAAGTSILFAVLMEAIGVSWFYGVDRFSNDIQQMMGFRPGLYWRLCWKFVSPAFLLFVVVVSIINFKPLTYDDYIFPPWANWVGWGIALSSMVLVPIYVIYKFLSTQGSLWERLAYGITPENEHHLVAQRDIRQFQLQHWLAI
Chain of Potassium voltage-gated channel subfamily V member 1 (Rattus norvegicus) (P97557 whole entry): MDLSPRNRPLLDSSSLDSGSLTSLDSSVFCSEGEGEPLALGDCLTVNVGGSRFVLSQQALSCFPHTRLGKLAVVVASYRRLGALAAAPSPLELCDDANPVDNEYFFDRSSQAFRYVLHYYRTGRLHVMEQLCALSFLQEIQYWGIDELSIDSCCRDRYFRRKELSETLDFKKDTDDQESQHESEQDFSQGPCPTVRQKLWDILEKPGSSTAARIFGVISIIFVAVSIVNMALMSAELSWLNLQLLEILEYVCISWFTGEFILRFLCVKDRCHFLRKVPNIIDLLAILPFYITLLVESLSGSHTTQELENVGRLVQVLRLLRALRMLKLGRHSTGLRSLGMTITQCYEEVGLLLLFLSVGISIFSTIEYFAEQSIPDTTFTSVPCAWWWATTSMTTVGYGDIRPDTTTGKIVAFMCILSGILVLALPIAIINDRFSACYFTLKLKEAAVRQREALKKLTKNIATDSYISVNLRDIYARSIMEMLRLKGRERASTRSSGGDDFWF
Chain of 5-hydroxytryptamine receptor 1B (Homo sapiens) (P28222 whole entry): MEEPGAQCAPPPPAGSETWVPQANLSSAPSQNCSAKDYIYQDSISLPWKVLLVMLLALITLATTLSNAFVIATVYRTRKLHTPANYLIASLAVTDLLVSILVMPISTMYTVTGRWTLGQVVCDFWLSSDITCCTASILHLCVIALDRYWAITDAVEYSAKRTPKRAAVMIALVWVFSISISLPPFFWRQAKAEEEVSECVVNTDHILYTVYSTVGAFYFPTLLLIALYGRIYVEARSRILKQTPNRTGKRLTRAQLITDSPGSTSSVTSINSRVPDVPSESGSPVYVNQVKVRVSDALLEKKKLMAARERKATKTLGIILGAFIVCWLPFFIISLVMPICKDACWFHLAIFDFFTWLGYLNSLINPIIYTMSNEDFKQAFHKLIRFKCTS
Chain of D(4) dopamine receptor (Homo sapiens) (P21917 whole entry): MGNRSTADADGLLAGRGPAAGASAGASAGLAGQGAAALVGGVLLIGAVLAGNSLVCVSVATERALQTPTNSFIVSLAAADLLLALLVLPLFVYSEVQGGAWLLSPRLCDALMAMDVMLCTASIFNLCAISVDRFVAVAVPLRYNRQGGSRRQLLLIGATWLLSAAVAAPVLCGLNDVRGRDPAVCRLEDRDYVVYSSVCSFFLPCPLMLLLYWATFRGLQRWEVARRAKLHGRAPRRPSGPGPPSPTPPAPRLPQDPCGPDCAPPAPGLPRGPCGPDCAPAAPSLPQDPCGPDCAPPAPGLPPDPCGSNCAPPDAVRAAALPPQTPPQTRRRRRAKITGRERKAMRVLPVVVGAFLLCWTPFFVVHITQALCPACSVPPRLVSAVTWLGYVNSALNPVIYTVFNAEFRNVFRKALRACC

- inhibition [1]: -8.43%
SMILES: COCCCS(=O)(=O)c1cc(C)c(-c2ccc(F)c3c2CC[C@H]3Oc2ccc3c(c2)OC[C@H]3CC(=O)O)c(C)c1
- residual activity [2]: 112%
- residual activity [3]: 97%
- residual activity [4]: 87%
- residual activity [5]: 108%
- residual activity [6]: 95%
- residual activity [7]: 88%
- residual activity [8]: 43%
- activity at 10 µM (hERG (KCNH2) [9]): 93% (not active)
- residual activity [10]: 103%

- Ki [17]: > 10 µM
- pKi [17]: < 5
SMILES: Cc1cc(OCCC(C)(C)O)cc(C)c1-c1ccc(F)c2c1CC[C@H]2Oc1ccc2c(c1)OC[C@H]2CC(=O)O
- residual activity ([11]; Compound concentration 0.3 uM): 83%
- residual activity ([11]; Compound concentration 1.0 uM): 75%
- residual activity ([11]; Compound concentration 3.0 uM): 60%
- residual activity ([11]; Compound concentration 10.0 uM): 54%
- residual activity ([11]; Compound concentration 30.0 uM): 28%
- activity at 10 µM (hERG (KCNH2) [12]): 80% (not active)
- residual activity [13]: 91%
- residual activity [14]: 100%
- residual activity ([15]; Compound concentration 0.3 uM): 97%
- residual activity ([15]; Compound concentration 1.0 uM): 98%
- residual activity ([15]; Compound concentration 3.0 uM): 103%
- residual activity ([15]; Compound concentration 10.0 uM): 90%
- residual activity ([15]; Compound concentration 30.0 uM): 75%
- residual activity [16]: 100%
- residual activity [18]: 98%
- residual activity [19]: 99%
- residual activity [20]: 86%
- residual activity [21]: 68%
- residual activity [22]: 103%
- residual activity [23]: 100%
- residual activity [24]: 83%
- residual activity [25]: 125%
